Assay results as given in ChEMBL document CHEMBL4680330, “Soloxolone methyl, as a 18βH-glycyrrhetinic acid derivate, may result in endoplasmic reticulum stress to induce apoptosis in breast cancer cells” (Bioorg Med Chem, 2021).

Columns and labels:
[1] = system: MDA-MB-231; assay: Induction of apoptosis in human MDA-MB-231 cells assessed as cleaved PARP level at 4.39 uM incubated for 24 hrs by Western blot analysis (reference value: 1); assay type: functional
[2] = system: MDA-MB-231; assay: Induction of endoplasmic reticulum stress in human MDA-MB-231 cells assessed as BIP expression at 4.39 uM incubated for 24 hrs by Western blot analysis (reference value: 1); assay type: functional
[3] = system: MDA-MB-231; assay: Induction of apoptosis in human MDA-MB-231 cells assessed as pro-caspase 3 level at 4.39 uM incubated for 24 hrs by Western blot analysis (reference value: 1); assay type: functional
[4] = system: MDA-MB-231; assay: Induction of apoptosis in human MDA-MB-231 cells assessed as pro-caspase 8 level at 4.39 uM incubated for 24 hrs by Western blot analysis (reference value: 1); assay type: functional
[5] = system: MDA-MB-231; assay: Induction of apoptosis in human MDA-MB-231 cells assessed as cleaved pro-caspase 8 level at 4.39 uM incubated for 24 hrs by Western blot analysis (reference value: 1); assay type: functional
[6] = system: MDA-MB-231; assay: Induction of apoptosis in human MDA-MB-231 cells assessed as cleaved pro-caspase 3 level at 4.39 uM incubated for 24 hrs by Western blot analysis (reference value: 1); assay type: functional
[7] = system: MDA-MB-231; assay: Induction of endoplasmic reticulum stress in human MDA-MB-231 cells assessed as CHOP expression at 4.39 uM incubated for 24 hrs by Western blot analysis (reference value: 1); assay type: functional
[8] = system: MDA-MB-231; assay: Induction of apoptosis in human MDA-MB-231 cells assessed as PARP level at 4.39 uM incubated for 24 hrs by Western blot analysis (reference value: 1); assay type: functional
[9] = system: MDA-MB-231; assay: Induction of endoplasmic reticulum stress in human MDA-MB-231 cells assessed as IRE1-alpha expression at 4.39 uM incubated for 24 hrs by Western blot analysis (reference value: 1); assay type: functional
[10] = system: MCF7; assay: Cytotoxicity against human MCF7 cells assessed as reduction in cell viability incubated for 48 hrs by ATP based luminometry; assay type: functional; settings: MCF7, 48 h
[11] = system: Epidermoid carcinoma cell line; assay: Cytotoxicity against human Epidermoid carcinoma cell line; assay type: functional, cell-based

| Compound | fold change (FC) [1] | fold change (FC) [2] | fold change (FC) [3] | fold change (FC) [4] | fold change (FC) [5] | fold change (FC) [6] | fold change (FC) [7] | fold change (FC) [8] | fold change (FC) [9] | IC50 [10] [µM] | IC50 [11] [nM] |
| --- | --- | --- | --- | --- | --- | --- | --- | --- | --- | --- | --- |
| COc1cccc2c1C(=O)c1c(O)c3c(c(O)c1C2=O)C[C@@](O)(C(=O)CO)C[C@@H]3O[C@H]1C[C@H](N)[C@H](O)[C@H](C)O1 [DOXORUBICIN] | 23.2 | 0.1 | 2.5 | 0.3 | 0.6 | 2 | 0.3 | 0.2 | 0.1 | – | – |
| CC1(C)[C@@H](O)CC[C@]2(C)[C@H]3C(=O)C=C4[C@@H]5C[C@@](C)(C(=O)O)CC[C@]5(C)CC[C@@]4(C)[C@]3(C)CC[C@@H]12 [ENOXOLONE] | – | – | – | – | – | – | – | – | – | 32.6 | ≥ 300 |
